The experiment concerns the target T1, His-hMAGL (recombinant polyhistidine tagged human MAGL protein) (Homo sapiens, UniProt Q99685).
T1 construct: made in house; host or cells: E. coli BL21(DE3)
T1 sequence (Q99685 1-303): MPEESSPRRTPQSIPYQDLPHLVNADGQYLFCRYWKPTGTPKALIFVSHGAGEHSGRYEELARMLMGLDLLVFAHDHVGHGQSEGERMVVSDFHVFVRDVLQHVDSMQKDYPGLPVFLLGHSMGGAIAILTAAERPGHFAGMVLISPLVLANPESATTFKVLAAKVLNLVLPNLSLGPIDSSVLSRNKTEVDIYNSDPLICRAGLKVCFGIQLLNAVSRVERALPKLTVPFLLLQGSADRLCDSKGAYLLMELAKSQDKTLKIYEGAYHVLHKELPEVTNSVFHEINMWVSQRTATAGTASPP
Nature of the experiment: Measurement of MAGL inhibitory activity (arachidonic acid production from 2-arachidonylglycerol, RapidFire-mass spectrometry). In kind it is biochemical. Particulars: MAGL inhibitory rate, test compound 10 μM, 60 min preincubation, 2-arachidonylglycerol substrate. A digest of the protocol:
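Arachidonic acid formed was quantified by online solid-phase extraction and triple-quadrupole MS in negative SRM mode against a d8 internal standard. Reaction: recombinant His-hMAGL (7.5 ng/mL, pH 7.5 Tris buffer with Triton X-100 and BSA) plus 2-AG (5 μL of 150 μM stock) for 10 min at room temperature, quenched with 2% formic acid. Percent inhibition corrected for enzyme-free background.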

Usually inhibition stands for the change of the read-out against control, counted positive when it falls. On to `O=C1NC2(CCN(C(=O)N3CCC(COc4ccc(F)cc4Cl)CC3)C2)CO1` (stereo not drawn) [Example 322, 7-((4-((2-chloro-4-fluorophenoxy)methyl)piperidin-1-yl)carbonyl)-3-oxa-1,7-diazaspiro[4.4]nonan-2-one], for which the inhibition at 10 µM stood at 100%. With `O=C1NC2(CCN(C(=O)c3sc4cc(OC(F)(F)F)ccc4c3Cl)C2)CO1` (stereo not drawn) [Example 323, 7-((3-chloro-6-(trifluoromethoxy)-1-benzothiophen-2-yl)carbonyl)-3-oxa-1,7-diazaspiro[4.4]nonan-2-one], the “% inhibition (10 μM)” value amounted to 101%. On the same count and under the same terms, the value for `O=C1NC2(CCN(C(=O)c3sc4cc(OC(F)(F)F)ccc4c3Cl)C2)CO1` (stereo not drawn) [Example 324, 7-((3-chloro-6-(trifluoromethoxy)-1-benzothiophen-2-yl)carbonyl)-3-oxa-1,7-diazaspiro[4.4]nonan-2-one] was 94%. Regarding `O=C1NC2(CCN(C(=O)c3sc4cc(Cl)cc(Cl)c4c3Cl)C2)CO1` (stereo not drawn) [Example 325, 7-((3,4,6-trichloro-1-benzothiophen-2-yl)carbonyl)-3-oxa-1,7-diazaspiro[4.4]nonan-2-one], the inhibition at 10 µM was found to be 80%.

On to `O=C1NC2(CCN(C(=O)c3sc4cc(Cl)cc(Cl)c4c3Cl)C2)CO1` (stereo not drawn) [Example 327, 7-((3,4,6-trichloro-1-benzothiophen-2-yl)carbonyl)-3-oxa-1,7-diazaspiro[4.4]nonan-2-one], for which the “% inhibition (10 μM)” value is 99%.

`Cc1cc(F)c(F)c2sc(C(=O)N3CCC4(COC(=O)N4)C3)c(Cl)c12` (stereo not drawn) [Example 328, 7-((3-chloro-6,7-difluoro-4-methyl-1-benzothiophen-2-yl)carbonyl)-3-oxa-1,7-diazaspiro[4.4]nonan-2-one]: the inhibition at 10 µM is 99%. Consider `Cc1c(OC(F)(F)F)ccc2c(Cl)c(C(=O)N3CCC4(COC(=O)N4)C3)sc12` (stereo not drawn) [Example 329, 7-((3-chloro-7-methyl-6-(trifluoromethoxy)-1-benzothiophen-2-yl)carbonyl)-3-oxa-1,7-diazaspiro[4.4]nonan-2-one], for which the inhibition at 10 µM turned out to be 100%.

Consider `Cc1c(OC(F)(F)F)ccc2c(Cl)c(C(=O)N3CCC4(COC(=O)N4)C3)sc12` (stereo not drawn) [Example 330, 7-((3-chloro-7-methyl-6-(trifluoromethoxy)-1-benzothiophen-2-yl)carbonyl)-3-oxa-1,7-diazaspiro[4.4]nonan-2-one], for which the “% inhibition (10 μM)” value came to 96%. As for `Cc1cc(OC(F)(F)F)cc2sc(C(=O)N3CCC4(COC(=O)N4)C3)c(Cl)c12` (stereo not drawn) [Example 331, 7-((3-chloro-4-methyl-6-(trifluoromethoxy)-1-benzothiophen-2-yl)carbonyl)-3-oxa-1,7-diazaspiro[4.4]nonan-2-one], the inhibition at 10 µM was 101%. For `O=C1NC2(CCN(C(=O)c3sc4cc(F)cc(Cl)c4c3Cl)C2)CO1` (stereo not drawn) [Example 332, 7-((3,4-dichloro-6-fluoro-1-benzothiophen-2-yl)carbonyl)-3-oxa-1,7-diazaspiro[4.4]nonan-2-one], the inhibition at 10 µM came out at 100%.

`O=C1NC2(CCN(C(=O)c3sc4c(F)c(C(F)(F)F)ccc4c3C(F)F)C2)CO1` (stereo not drawn) [Example 333, 7-((3-(difluoromethyl)-7-fluoro-6-(trifluoromethyl)-1-benzothiophen-2-yl)carbonyl)-3-oxa-1,7-diazaspiro[4.4]nonan-2-one]: the inhibition at 10 µM is 99%. On the same count and under the same terms, the value for `O=C1NC2(CCN(C(=O)c3sc4cc(C(F)(F)F)cc(F)c4c3Cl)C2)CO1` (stereo not drawn) [Example 334, 7-((3-chloro-4-fluoro-6-(trifluoromethyl)-1-benzothiophen-2-yl)carbonyl)-3-oxa-1,7-diazaspiro[4.4]nonan-2-one] was 100%.

Consider `O=C1NC2(CO1)CN(C(=O)c1ccc(-c3cccc(C4(C(F)(F)F)CC4)c3)c(F)c1)C2` [Example 335, 2-((2-fluoro-3′-(1-(trifluoromethyl)cyclopropyl)biphenyl-4-yl)carbonyl)-7-oxa-2,5-diazaspiro[3.4]octan-6-one], for which the inhibition at 10 µM is 100%. On the same count and under the same terms, the value for `O=C1NC2(CCN(C(=O)c3sc4c(F)c(OC(F)(F)F)cc(F)c4c3Cl)C2)CO1` (stereo not drawn) [Example 336, 7-((3-chloro-4,7-difluoro-6-(trifluoromethoxy)-1-benzothiophen-2-yl)carbonyl)-3-oxa-1,7-diazaspiro[4.4]nonan-2-one] was 100%. Consider `Cc1c(C(F)(F)F)ccc2c(Cl)c(C(=O)N3CCC4(COC(=O)N4)C3)sc12` (stereo not drawn) [Example 337, 7-((3-chloro-7-methyl-6-(trifluoromethyl)-1-benzothiophen-2-yl)carbonyl)-3-oxa-1,7-diazaspiro[4.4]nonan-2-one], for which the inhibition at 10 µM was found to be 100%. `O=C1NC2(CCN(C(=O)c3sc4c(F)c(OC(F)(F)F)ccc4c3Cl)C2)CO1` (stereo not drawn) [Example 338, 7-((3-chloro-7-fluoro-6-(trifluoromethoxy)-1-benzothiophen-2-yl)carbonyl)-3-oxa-1,7-diazaspiro[4.4]nonan-2-one]: the inhibition at 10 µM stood at 100%. For `O=C1NC2(CCN(C(=O)c3sc4cc(OC(F)(F)F)c(F)cc4c3Cl)C2)CO1` (stereo not drawn) [Example 339, 7-((3-chloro-5-fluoro-6-(trifluoromethoxy)-1-benzothiophen-2-yl)carbonyl)-3-oxa-1,7-diazaspiro[4.4]nonan-2-one], the inhibition at 10 µM is 100%. As for `O=C1NC2(CCN(C(=O)c3sc4c(F)c(F)cc(Cl)c4c3Cl)C2)CO1` (stereo not drawn) [Example 340, 7-((3,4-dichloro-6,7-difluoro-1-benzothiophen-2-yl)carbonyl)-3-oxa-1,7-diazaspiro[4.4]nonan-2-one], the inhibition at 10 µM is 99%. With `Cc1cc(C(F)(F)F)cc2sc(C(=O)N3CCC4(COC(=O)N4)C3)c(Cl)c12` (stereo not drawn) [Example 341, 7-((3-chloro-4-methyl-6-(trifluoromethyl)-1-benzothiophen-2-yl)carbonyl)-3-oxa-1,7-diazaspiro[4.4]nonan-2-one], the inhibition at 10 µM is 100%.

As for `O=C1NC2(CCN(C(=O)c3sc4c(F)c(C(F)(F)F)ccc4c3Cl)C2)CO1` (stereo not drawn) [Example 342, 7-((3-chloro-7-fluoro-6-(trifluoromethyl)-1-benzothiophen-2-yl)carbonyl)-3-oxa-1,7-diazaspiro[4.4]nonan-2-one], the inhibition at 10 µM was determined as 100%.

With `O=C1NC2(CCN(C(=O)c3sc4cc(C(F)(F)F)c(F)cc4c3Cl)C2)CO1` (stereo not drawn) [Example 343, 7-((3-chloro-5-fluoro-6-(trifluoromethyl)-1-benzothiophen-2-yl)carbonyl)-3-oxa-1,7-diazaspiro[4.4]nonan-2-one], the inhibition at 10 µM came to 100%.

In the case of `O=C1NC2(CO1)CN(C(=O)c1ccc(-c3cccc(C4(C(F)(F)F)CC4)c3)cc1)C2` [Example 344, 2-((3′-(1-(trifluoromethyl)cyclopropyl)biphenyl-4-yl)carbonyl)-7-oxa-2,5-diazaspiro[3.4]octan-6-one], the inhibition at 10 µM was 99%. Regarding `O=C1NC2(CO1)CN(C(=O)c1sc3cc(-c4c(F)cccc4F)ccc3c1Cl)C2` [Example 345, 2-((3-chloro-6-(2,6-difluorophenyl)-1-benzothiophen-2-yl)carbonyl)-7-oxa-2,5-diazaspiro[3.4]octan-6-one], the inhibition at 10 µM is 100%. As to `O=C1NC2(CO1)CN(C(=O)c1sc3cc(-c4ccccc4F)ccc3c1-c1ccccc1F)C2` [Example 346, 2-((3,6-bis(2-fluorophenyl)-1-benzothiophen-2-yl)carbonyl)-7-oxa-2,5-diazaspiro[3.4]octan-6-one], the inhibition at 10 µM stood at 100%. In the case of `Cc1c(C(=O)N2CC3(COC(=O)N3)C2)sc2c(F)c(OC(F)(F)F)ccc12` [Example 347, 2-((7-fluoro-3-methyl-6-(trifluoromethoxy)-1-benzothiophen-2-yl)carbonyl)-7-oxa-2,5-diazaspiro[3.4]octan-6-one], the inhibition at 10 µM is 100%. Consider `O=C1NC2(CO1)CN(C(=O)[C@H]1C[C@H](OCc3ccc(Cl)cc3Cl)C1)C2` [Example 348, 2-((trans-3-((2,4-dichlorobenzyl)oxy)cyclobutyl)carbonyl)-7-oxa-2,5-diazaspiro[3.4]octan-6-one], for which the inhibition at 10 µM was 100%. In the case of `O=C1NC2(CO1)CN(C(=O)[C@H]1C[C@@H](OCc3ccc(Cl)cc3Cl)C1)C2` [Example 349, 2-((cis-3-((2,4-dichlorobenzyl)oxy)cyclobutyl)carbonyl)-7-oxa-2,5-diazaspiro[3.4]octan-6-one], the inhibition at 10 µM came out at 100%. As to `O=C1NC2(CO1)CN(C(=O)[C@H]1C[C@H](OCc3ccc(C(F)(F)F)cc3Cl)C1)C2` [Example 350, 2-((trans-3-((2-chloro-4-(trifluoromethyl)benzyl)oxy)cyclobutyl)carbonyl)-7-oxa-2,5-diazaspiro[3.4]octan-6-one], the inhibition at 10 µM came out at 100%. Regarding `Cc1c(C(=O)N2CC3(COC(=O)N3)C2)sc2cc(-c3c(F)cccc3F)ccc12` [Example 351, 2-((6-(2,6-difluorophenyl)-3-methyl-1-benzothiophen-2-yl)carbonyl)-7-oxa-2,5-diazaspiro[3.4]octan-6-one], the inhibition at 10 µM is 100%. As to `O=C1NC2(CO1)CN(C(=O)[C@H]1C[C@@H](OCc3ccc(C(F)(F)F)cc3Cl)C1)C2` [Example 352, 2-((cis-3-((2-chloro-4-(trifluoromethyl)benzyl)oxy)cyclobutyl)carbonyl)-7-oxa-2,5-diazaspiro[3.4]octan-6-one], the inhibition at 10 µM amounted to 100%.

The record behind these values is patent publication US10610520B2, “Heterocyclic compound” (Takeda Pharmaceutical Company Limited, priority 2016, dated 2020).
